Patent US7700543B2, “Use NF-κB inhibition in combination therapy for cancer” (The University of North Carolina at Chapel Hill, priority 1997, dated 2010)
Entries after “also recorded” stand apart in the source; their conditions may differ. Peptide text beside a SMILES is read from it. * marks the point of attachment. Cbz = O=C(OCc1ccccc1)*

Tests used:
[1] = tested on: HT1080 fibrosarcoma cells; assay: Cell survival by crystal violet assay in HT1080V and HT1080I cells; assay type: cell-based, human
Procedure: HT1080V (open squares) and HT1080I cells (solid diamonds) were treated with TNFα (20 ng/ml) for varying times and surviving cells were quantified by crystal violet assay (Mehlen et al., EMBO J. 15:2695 (1996)). Data shown (FIG. 1A) are the mean of three independent experiments ±SD, and the percentage cell survival was defined as the relative number of TNF treated versus untreated cells.
HT1080V and HT1080I cells were preincubated with 10 ng/ml IL-1β (R & D Systems) for 5 hours (+Pre IL-1), or were left untreated. Cells were then treated with 10 μg/ml cycloheximide (CHX) and different concentrations of TNFα (0-50 ng/ml). Surviving cells were quantified by crystal violet assay (Mehlen et al., EMBO J. 15:2695 (1996)). […] Open squares represent HT1080V cells without IL-1 pretreatment; closed squares represent HT1080V cells pretreated with IL-1; circles represent HT1080I cells without IL-1 pretreatment; triangles represent HT1080I cells pretreated with IL-1.

NF-κB [2] = assay: Electrophoretic mobility-shift assay (EMSA) of NF-κB nuclear translocation in HT1080V and HT1080I cells; assay type: cell-based, human
Procedure: HT1080 fibrosarcoma cells were co-transfected with the pCMV empty vector to produce control cells HT1080V; HT1080 cells co-transfected with the pCMV vector containing a cDNA encoding the super-repressor IκBα and with the pCEP4 vector for hygromycin B selection (400 μg/ml) provided HT1080I cells that expressed the super-repressor IκBα.

[3] = tested on: HT1080V and HT1080I cells; assay: Cell viability of HT1080V and HT1080I cells treated with cytotoxic agent (data not shown); assay type: cell-based, human
Procedure: The present inventors' preliminary data additionally indicate that cell killing by vincristine is augmented by the inhibition of NF-κB (data not shown). HT1080V and HT1080I cells were treated with vincristine and cell viability was determined.

NF-κB [4] = assay: NF-κB activation by CPT-11 (data not shown); assay type: cell-based
HT1080V cells = assay: Cell viability experiments, enhancement of TNF-induced cell killing by proteasome inhibitor; assay type: cell-based, human; conditions: dose-dependent, data not shown
Source text: The effect of a proteasome inhibitor on TNF-treated cells was investigated. Proteasome inhibitors of the peptide aldehyde category are potent inhibitors of NF-κB activation (Palombello et al., Cell 78:773 (1994); Chen et al., Genes Dev. 9:1586 (1995)). […] Cell viability experiments were used to monitor the effectiveness of MG132 in enhancing TNF-induced cell killing.

[5] = tested on: HT1080 fibrosarcoma cells; assay: TNF-induced apoptosis detected by TUNEL staining; assay type: cell-based, human; conditions: 50 ng/ml TNFα for 7 hr; HT1080V and HT1080I cells; FIG. 1B
Procedure: TNF-induced apoptosis was detected by TUNEL staining (Graeber et al., Nature 379:88 (1996)). HT1080V (V) and HT1080I (I) cells were untreated (−TNF) or stimulated (+TNF) with 50 ng/ml TNFα for 7 hr and fixed with 4% paraformaldehyde. The staining was done according to the manufacturer's instructions (Boehringer Mannheim).

Molecule: IL-1: an activator of NF-κB that does not initiate apoptosis
- Effect of pre-treatment on TNFα+CHX-induced apoptosis in HT1080V cells ([1]; 10 ng/ml IL-1β for 5 hours, then 10 μg/ml CHX and TNFα 0-50 ng/ml, FIG. 2A): inhibited TNFα+CHX-induced apoptosis in HT1080V cells
- Effect of pre-treatment on CHX+TNF-induced killing in HT1080I cells ([1]; HT1080I cells, NF-κB activation blocked, FIG. 2A): no protective effect

Molecule: CN[C@@H]1C[C@H]2O[C@@](C)([C@@H]1OC)n1c3ccccc3c3c4c(c5c6ccccc6n2c5c31)C(=O)NC4 [staurosporine]
- NF-κB nuclear translocation (EMSA) in control cells (NF-κB [2]; HT1080V cells, 1 μM daunorubicin or 50 nM staurosporine): did not activate NF-κB; also recorded: only slight nuclear translocation of NF-κB was evident
- Apoptosis induced in IκBα expressing cells versus control ([3]; HT1080I cells, data not shown): not enhanced by the expression of IκBα

Molecule: COc1cccc2c1C(=O)c1c(O)c3c(c(O)c1C2=O)C[C@@](O)(C(C)=O)C[C@@H]3O[C@H]1C[C@H](N)[C@H](O)[C@H](C)O1 [daunorubicin]
- Cell survival after daunorubicin, HT1080I versus control cells ([1]; 0.1 to 2.0 μM for 24 hours, FIG. 3B): reduced in HT1080I cells

Molecule: CCc1c2c(nc3ccc(OC(=O)N4CCC(N5CCCCC5)CC4)cc13)-c1cc3c(c(=O)n1C2)COC(=O)[C@]3(O)CC [CPT-11, irinotecan]
- Activation of NF-κB (NF-κB [4]): determined to activate NF-κB

Molecule: CC[C@]1(O)C[C@H]2CN(CCc3c([nH]c4ccccc34)[C@@](C(=O)OC)(c3cc4c(cc3OC)N(C=O)[C@H]3[C@@](O)(C(=O)OC)[C@H](OC(C)=O)[C@]5(CC)C=CCN6CC[C@]43[C@@H]65)C2)C1 [vincristine]
- Cell killing in HT1080I versus HT1080V cells ([3]; preliminary data, not shown): Cell killing in HT1080I cells was enhanced compared to that in HT1080V cells

Molecule: CC(C)C[C@@H](C=O)NC(=O)[C@H](CC(C)C)NC(=O)[C@H](CC(C)C)NC(=O)OCc1ccccc1 [MG132, Z-leu-leu-leu-H] (Cbz-Leu-Leu-Leu-aldehyde)
- Enhancement of TNF-induced killing (HT1080V cells): strongly enhanced TNF-induced killing of HT1080V cells

Molecule: TNFα
- Cell survival after TNFα, HT1080I versus HT1080V ([1]; TNFα 20 ng/ml, varying times, FIG. 1A): Cell survival was reduced in HT1080I cells compared to HT1080V controls
- Apoptotic morphology by TUNEL staining [5]: only super-repressor IκBα expressing cells showed apoptotic morphology

B1: super-repressor IκBα: mutant IκBα with serine to alanine mutations at residues 32 and 36; binds NF-κB and inhibits nuclear translocation (protein, UniProt P25963 1-317, looked up, variant S32A S36A)
NF-kappa-B inhibitor alpha: MFQAAERPQEWAMEGPRDGLKKERLLDDRHDAGLDAMKDEEYEQMVKELQEIRLEPQEVPRGSEPWKQQLTEDGDSFLHLAIIHEEKALTMEVIRQVKGDLAFLNFQNNLQQTPLHLAVITNQPEIAEALLGAGCDPELRDFRGNTPLHLACEQGCLASVGVLTQSCTTPHLHSILKATNYNGHTCLHLASIHGYLGIVELLVSLGADVNAQEPCNGRTALHLAVDLQNPDLVSLLLKCGADVNRVTYQGYSPYQLTWGRPSTRIQQQLGQLTLENLQMLPESEDEESYDTESEFTEFTEDELPYDDCVFGGQRLTL
- Effect on TNF-stimulated NF-κB nuclear translocation (EMSA) (NF-κB [2]; expressed in HT1080I cells, data not shown): efficiently blocked TNF-stimulated NF-κB nuclear translocation
